Seven compounds from US8703701B2 (Indiana University Research and Technology Corporation, priority 2009, dated 2014) can be followed below.

One assay has as its target T1, glucagon receptor (Homo sapiens, UniProt P47871).
T1 construct: expressed in transfected cells; host or cells: HEK293
In words: cAMP induction, firefly luciferase reporter assay, glucagon receptor. Format: cell-based. The conditions noted are these: for Activity at Glucagon Receptor % Relative Activity: compared to native glucagon. How it is done: (§1) The ability of each peptide to induce cAMP was measured in a firefly luciferase-based reporter assay.
(§2) At the end of the incubation, 100 μL of LucLite luminescence substrate reagent (Perkin Elmer, Wellesley, Mass.) were added to each well. The plate was shaken briefly, incubated 10 min in the dark and light output was measured on MicroBeta-1450 liquid scintillation counter (Perkin-Elmer, Wellesley, Mass.).
For orientation: Reporter assays use an easily measured gene product as a stand-in for the process of interest.

Another assay concerns the target T2, GLP-1 receptor (Homo sapiens, UniProt P43220).
T2 construct: expressed in transfected cells; host or cells: HEK293
Kind of assay: cAMP induction, firefly luciferase reporter assay, GLP-1 receptor. Format: cell-based. The conditions noted are these: for Activity at GLP-1 Receptor % Relative Activity: compared to native GLP-1. Here is the method:
as §1, §2

Where [1] appears, read: Activity at Glucagon Receptor EC50 [pM], Table 3A.
The mark [2] stands for this setting: Activity at GLP-1 Receptor EC50 [pM], Table 3A.

Each structure is given as a SMILES string. Starred links: 1 amine or outer side, 2 acyl side, 3 side chain; linkers in the order of their positions; H or OH if unused. Non-standard residues stand in square brackets, D forms with d. Residues, ends and D or L forms follow the SMILES beside them. Groups on a side chain read outwards from the residue. *: point of attachment. γGlu = O=C(O)[C@H](CCC(=O)[*:2])N[*:1]; Palmitoyl = CCCCCCCCCCCCCCCC(=O)*; Aib = CC(C)(N)C(=O)O

T2 sequence (P43220 24-463): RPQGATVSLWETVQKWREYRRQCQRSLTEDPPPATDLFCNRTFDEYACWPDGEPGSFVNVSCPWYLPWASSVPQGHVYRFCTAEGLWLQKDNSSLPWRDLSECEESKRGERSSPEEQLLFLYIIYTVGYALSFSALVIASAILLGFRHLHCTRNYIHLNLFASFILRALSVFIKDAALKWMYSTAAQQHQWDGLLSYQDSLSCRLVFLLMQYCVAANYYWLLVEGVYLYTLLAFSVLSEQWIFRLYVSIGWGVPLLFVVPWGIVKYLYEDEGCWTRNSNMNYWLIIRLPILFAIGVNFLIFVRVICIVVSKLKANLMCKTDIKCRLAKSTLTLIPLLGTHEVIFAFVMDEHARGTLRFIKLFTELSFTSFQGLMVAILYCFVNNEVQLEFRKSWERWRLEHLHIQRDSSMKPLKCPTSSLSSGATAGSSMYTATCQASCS
T1 sequence (P47871 26-477): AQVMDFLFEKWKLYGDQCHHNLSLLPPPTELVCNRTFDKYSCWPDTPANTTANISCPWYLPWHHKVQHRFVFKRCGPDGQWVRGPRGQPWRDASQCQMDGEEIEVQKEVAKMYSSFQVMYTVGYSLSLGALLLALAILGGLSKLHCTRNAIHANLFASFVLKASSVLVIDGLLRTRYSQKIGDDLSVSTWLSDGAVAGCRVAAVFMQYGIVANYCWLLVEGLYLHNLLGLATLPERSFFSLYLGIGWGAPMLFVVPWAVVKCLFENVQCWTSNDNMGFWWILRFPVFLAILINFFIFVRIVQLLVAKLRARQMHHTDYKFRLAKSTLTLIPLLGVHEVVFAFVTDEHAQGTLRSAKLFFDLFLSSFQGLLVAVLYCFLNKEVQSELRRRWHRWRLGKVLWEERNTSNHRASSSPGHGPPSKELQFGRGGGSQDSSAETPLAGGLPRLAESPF

In general, EC50 refers to the midpoint of the concentration-response curve. A lower EC50 goes with greater potency. For the compound `CCCCCCCCCCCCCCCC(=O)NCCCC[C@H](NC(=O)[C@H](CC(=O)O)NC(=O)[C@H](CO)NC(=O)[C@@H](NC(=O)[C@H](Cc1ccccc1)NC(=O)[C@@H](NC(=O)CNC(=O)[C@H](CCC(N)=O)NC(=O)C(C)(C)NC(=O)[C@@H](N)Cc1c[nH]cn1)[C@@H](C)O)[C@@H](C)O)C(=O)N[C@@H](CO)C(=O)N[C@@H](CCCCN)C(=O)N[C@@H](Cc1ccc(O)cc1)C(=O)N[C@@H](CC(C)C)C(=O)N[C@@H](CC(=O)O)C(=O)NC(C)(C)C(=O)N[C@@H](CCCNC(=N)N)C(=O)N[C@@H](C)C(=O)N[C@@H](C)C(=O)N[C@@H](CCC(N)=O)C(=O)N[C@@H](CC(=O)O)C(=O)N[C@@H](Cc1ccccc1)C(=O)N[C@H](C(=O)N[C@@H](CCC(N)=O)C(=O)N[C@@H](Cc1c[nH]c2ccccc12)C(=O)N[C@@H](CC(C)C)C(=O)N[C@@H](CCSC)C(=O)N[C@@H](CC(=O)O)C(=O)N[C@H](C(N)=O)[C@@H](C)O)C(C)C` [compound 69] (H-H[Aib]QGTFTSDK(Palmitoyl)SKYLD[Aib]RAAQDFVQWLMDT-NH2; N-terminus assumed), the “Activity at Glucagon Receptor % Relative Activity” value on glucagon receptor (Table 3B) is given as 325%. For the same compound, on GLP-1 receptor (Activity at GLP-1 Receptor EC50 [pM], Table 3B), the EC50 amounted to 5 pM. The “Activity at GLP-1 Receptor % Relative Activity” value at GLP-1 receptor (Table 3B) amounted to 440%.
`CCCCCCCCCCCCCCCC(=O)N[C@@H](CCC(=O)N[C@@H](CCC(=O)NCCCC[C@H](NC(=O)[C@H](CC(=O)O)NC(=O)[C@H](CO)NC(=O)[C@@H](NC(=O)[C@H](Cc1ccccc1)NC(=O)[C@@H](NC(=O)CNC(=O)[C@H](CCC(N)=O)NC(=O)C(C)(C)NC(=O)[C@@H](N)Cc1c[nH]cn1)[C@@H](C)O)[C@@H](C)O)C(=O)N[C@@H](CO)C(=O)N[C@@H](CCCCN)C(=O)N[C@@H](Cc1ccc(O)cc1)C(=O)N[C@@H](CC(C)C)C(=O)N[C@@H](CC(=O)O)C(=O)N[C@@H](CCC(=O)O)C(=O)N[C@@H](CCCNC(=N)N)C(=O)N[C@@H](C)C(=O)N[C@@H](C)C(=O)N[C@@H](CCC(N)=O)C(=O)N[C@@H](CC(=O)O)C(=O)N[C@@H](Cc1ccccc1)C(=O)N[C@H](C(=O)N[C@@H](CCC(N)=O)C(=O)N[C@@H](Cc1c[nH]c2ccccc12)C(=O)N[C@@H](CC(C)C)C(=O)N[C@@H](CCSC)C(=O)N[C@@H](CC(=O)O)C(=O)N[C@H](C(N)=O)[C@@H](C)O)C(C)C)C(=O)O)C(=O)O` [compound 50]: the results for the EC50 on glucagon receptor (setting [1]) and at GLP-1 receptor (setting [2]) were 2 pM and 5 pM, respectively. Besides, on glucagon receptor (Table 3A), the “Activity at Glucagon Receptor % Relative Activity” value came to 1000%. On GLP-1 receptor (Table 3A), the “Activity at GLP-1 Receptor % Relative Activity” value stood at 500%.
Consider `CC(C)C[C@H](NC(=O)[C@H](CC(C)C)NC(=O)[C@H](Cc1c[nH]c2ccccc12)NC(=O)[C@H](CS)NC(=O)[C@@H](NC(=O)[C@H](Cc1ccccc1)NC(=O)[C@H](CCC(=O)O)NC(=O)[C@H](CCCCN)NC(=O)[C@H](C)NC(=O)[C@H](CCCNC(=N)N)NC(=O)[C@H](CCCCN)NC(=O)C(C)(C)NC(=O)[C@H](CC(=O)O)NC(=O)[C@H](CC(C)C)NC(=O)[C@H](Cc1ccc(O)cc1)NC(=O)[C@H](CCCCN)NC(=O)[C@H](CO)NC(=O)[C@H](Cc1ccc(O)cc1)NC(=O)[C@H](CC(=O)O)NC(=O)[C@H](CO)NC(=O)[C@@H](NC(=O)[C@H](Cc1ccccc1)NC(=O)[C@@H](NC(=O)CNC(=O)[C@H](CCC(N)=O)NC(=O)[C@@H](CO)NC(=O)[C@@H](N)Cc1c[nH]cn1)[C@@H](C)O)[C@@H](C)O)C(C)C)C(=O)N[C@@H](CC(=O)O)C(=O)NCC(=O)NCC(=O)N1CCC[C@H]1C(=O)N[C@@H](CO)C(=O)N[C@@H](CO)C(=O)NCC(=O)N[C@@H](C)C(=O)N1CCC[C@H]1C(=O)N1CCC[C@H]1C(=O)N1CCC[C@H]1C(=O)N[C@@H](CO)C(N)=O` [compound 60] (H-H[dS]QGTFTSDYSKYLD[Aib]KRAKEFVCWLLDGGPSSGAPPPS-NH2; N-terminus assumed), for which, at glucagon receptor (Activity at Glucagon Receptor EC50 (nM), Table 2B), the EC50 was 6 pM. Moreover, the “Activity at Glucagon Receptor % Relative Activity” value on glucagon receptor (Table 2B) was determined as 257%. Besides, on GLP-1 receptor (Table 2B), the “Activity at GLP-1 Receptor % Relative Activity” value is given as 19%.
Turning to `CCCCCCCCCCCCCCCC(=O)N[C@@H](CCC(=O)N[C@@H](CCC(=O)NCCCC[C@H](NC(=O)[C@H](CC(=O)O)NC(=O)[C@H](CO)NC(=O)[C@@H](NC(=O)[C@H](Cc1ccccc1)NC(=O)[C@@H](NC(=O)CNC(=O)[C@H](CCC(N)=O)NC(=O)C(C)(C)NC(=O)[C@@H](N)Cc1c[nH]cn1)[C@@H](C)O)[C@@H](C)CC)C(=O)N[C@@H](CO)C(=O)N[C@@H](CCCCN)C(=O)N[C@@H](Cc1ccc(O)cc1)C(=O)N[C@@H](CC(C)C)C(=O)N[C@@H](CC(=O)O)C(=O)NC(C)(C)C(=O)N[C@@H](CCCNC(=N)N)C(=O)N[C@@H](C)C(=O)N[C@@H](C)C(=O)N[C@@H](CCC(N)=O)C(=O)N[C@@H](CC(=O)O)C(=O)N[C@@H](Cc1ccccc1)C(=O)N[C@H](C(=O)N[C@@H](CCC(N)=O)C(=O)N[C@@H](Cc1c[nH]c2ccccc12)C(=O)N[C@@H](CC(C)C)C(=O)N[C@@H](CCSC)C(=O)N[C@@H](CC(=O)O)C(=O)N[C@H](C(=O)O)[C@@H](C)O)C(C)C)C(=O)O)C(=O)O` [compound 46], on glucagon receptor (Table 3A), the “Activity at Glucagon Receptor % Relative Activity” value worked out at 2800%. Besides, at GLP-1 receptor (Table 3A), the “Activity at GLP-1 Receptor % Relative Activity” value came to 4.9%.
As to `CCCCCCCCCCCCCCCC(=O)N[C@@H](CCC(=O)N[C@@H](CCC(=O)NCCCC[C@H](NC(=O)[C@H](CC(=O)O)NC(=O)[C@H](CO)NC(=O)[C@@H](NC(=O)[C@H](Cc1ccccc1)NC(=O)[C@@H](NC(=O)CNC(=O)[C@H](CCC(=O)O)NC(=O)C(C)(C)NC(=O)[C@@H](N)Cc1c[nH]cn1)[C@@H](C)O)[C@@H](C)O)C(=O)N[C@@H](CO)C(=O)N[C@@H](CCCCN)C(=O)N[C@@H](Cc1ccc(O)cc1)C(=O)N[C@@H](CC(C)C)C(=O)N[C@@H](CC(=O)O)C(=O)NC(C)(C)C(=O)N[C@@H](CCCNC(=N)N)C(=O)N[C@@H](C)C(=O)N[C@@H](C)C(=O)N[C@@H](CCC(N)=O)C(=O)N[C@@H](CC(=O)O)C(=O)N[C@@H](Cc1ccccc1)C(=O)N[C@H](C(=O)N[C@@H](CCC(N)=O)C(=O)N[C@@H](Cc1c[nH]c2ccccc12)C(=O)N[C@@H](CC(C)C)C(=O)N[C@@H](CCSC)C(=O)N[C@@H](CC(=O)O)C(=O)N[C@H](C(N)=O)[C@@H](C)O)C(C)C)C(=O)O)C(=O)O` [compound 45] (H-H[Aib]EGTFTSDK([γGlu-γGlu-Palmitoyl])SKYLD[Aib]RAAQDFVQWLMDT-NH2; N-terminus assumed), the “Activity at Glucagon Receptor % Relative Activity” value on glucagon receptor (Table 3A) worked out at 75%. This compound also showed an EC50 at GLP-1 receptor (setting [2]) of 3 pM. The “Activity at GLP-1 Receptor % Relative Activity” value at GLP-1 receptor (Table 3A) is recorded as 759%.
In the case of `CCCCCCCCCCCCCCCC(=O)N[C@@H](CCC(=O)N[C@@H](CCC(=O)NCCCC[C@H](NC(=O)[C@H](CC(=O)O)NC(=O)[C@H](CO)NC(=O)[C@@H](NC(=O)[C@H](Cc1ccccc1)NC(=O)[C@@H](NC(=O)CNC(=O)[C@H](CCC(N)=O)NC(=O)C(C)(C)NC(=O)[C@@H](N)Cc1c[nH]cn1)[C@@H](C)O)[C@@H](C)O)C(=O)N[C@@H](CO)C(=O)N[C@@H](CCCCN)C(=O)N[C@@H](Cc1ccc(O)cc1)C(=O)N[C@@H](CC(C)C)C(=O)N[C@@H](CCC(=O)O)C(=O)NC(C)(C)C(=O)N[C@@H](CCCNC(=N)N)C(=O)N[C@@H](C)C(=O)N[C@@H](C)C(=O)N[C@@H](CCC(N)=O)C(=O)N[C@@H](CC(=O)O)C(=O)N[C@@H](Cc1ccccc1)C(=O)N[C@H](C(=O)N[C@@H](CCC(N)=O)C(=O)N[C@@H](Cc1c[nH]c2ccccc12)C(=O)N[C@@H](CC(C)C)C(=O)N[C@@H](CCSC)C(=O)N[C@@H](CC(=O)O)C(=O)N[C@H](C(N)=O)[C@@H](C)O)C(C)C)C(=O)O)C(=O)O` [compound 48] (H-H[Aib]QGTFTSDK([γGlu-γGlu-Palmitoyl])SKYLE[Aib]RAAQDFVQWLMDT-NH2; N-terminus assumed), the EC50 on glucagon receptor (setting [1]) is 3 pM; at GLP-1 receptor (setting [2]), 6 pM. Besides, the “Activity at Glucagon Receptor % Relative Activity” value on glucagon receptor (Table 3A) is 1194%. Moreover, the “Activity at GLP-1 Receptor % Relative Activity” value at GLP-1 receptor (Table 3A) is 384%.
Regarding `CCCCCCCCCCCCCCCC(=O)N[C@@H](CCC(=O)NCCCC[C@H](NC(=O)[C@H](CC(=O)O)NC(=O)[C@H](CO)NC(=O)[C@@H](NC(=O)[C@H](Cc1ccccc1)NC(=O)[C@@H](NC(=O)CNC(=O)[C@H](CCC(N)=O)NC(=O)[C@@H](CO)NC(=O)[C@@H](N)Cc1c[nH]cn1)[C@@H](C)O)[C@@H](C)O)C(=O)N[C@@H](CO)C(=O)N[C@@H](CCCCN)C(=O)N[C@@H](Cc1ccc(O)cc1)C(=O)N[C@@H](CC(C)C)C(=O)N[C@@H](CC(=O)O)C(=O)N[C@@H](CCC(=O)O)C(=O)N[C@@H](CCCNC(=N)N)C(=O)N[C@@H](C)C(=O)N[C@@H](C)C(=O)N[C@@H](CCC(N)=O)C(=O)N[C@@H](CC(=O)O)C(=O)N[C@@H](Cc1ccccc1)C(=O)N[C@H](C(=O)N[C@@H](CCC(N)=O)C(=O)N[C@@H](Cc1c[nH]c2ccccc12)C(=O)N[C@@H](CC(C)C)C(=O)N[C@@H](CC(C)C)C(=O)N[C@@H](CC(=O)O)C(=O)N[C@H](C(N)=O)[C@@H](C)O)C(C)C)C(=O)O` [compound 51], the EC50 turned out to be 4 pM at glucagon receptor (Activity at Glucagon Receptor EC50 [nM], Table 6); 3.5 pM on glucagon receptor (setting [1]); 4 pM at GLP-1 receptor (Activity at GLP-1 Receptor EC50 [nM], Table 6); 3.9 pM at GLP-1 receptor (setting [2]). Besides, the “Activity at Glucagon Receptor % Relative Activity” value on glucagon receptor (Table 3A) and at glucagon receptor (Table 6) was 314% in each case. In addition, the “Activity at GLP-1 Receptor % Relative Activity” value at GLP-1 receptor (Table 3A) and at GLP-1 receptor (Table 6) was 949% each time.
